From patent US11485725B2, “Derivatives of piperlongumine and uses thereof” (Auransa Inc., priority 2017, dated 2022)
Where two headings read alike, the source gives them in different places.

Columns and labels:
MOLP-8 = experiment: In vitro cell viability assay (CellTiter-Glo, ATP levels), multiple myeloma cells; format: cell-based; conditions: Homo sapiens, MOLP-8, 168 h
Experimental: (§1) In Vitro Cell Viability Assay
(§2) The present disclosure provides a method for inhibiting cell viability, as measured by ATP levels. The method for inhibiting cell viability is drawn to contacting various cancer cells with the compounds described herein at various concentrations. The cancer cell lines were maintained in culture conditions at 37° C. in an atmosphere of 5% CO2 in air. The cells growing in an exponential growth phase were harvested and counted for plating. Compounds were incubated in two cancer cell types representing multiple myeloma (MOLP-8) and triple negative breast cancer (DU4475). Cells were plated at an optimized cell numbers per well in 96-well plates and allowed to attach to the plates overnight at approximately 80% confluency.
(§3) After addition of compounds, plates were incubated for 7-day. At the end of incubation period on day 8, media was removed and replaced with a solution of CellTiter-Glo™ reagent (Promega®) according to protocol. Luminescence was read using an EnVision® multi-label plate reader (Perkin-Elmer®), and signal intensity was calculated relative to positive and negative control wells. Cisplatin was included as the positive control. A dose-response calculation was performed in a non-linear regression fit and by using the Hill equation to calculate a concentration-response curve and 50% inhibitory concentration (IC50) values for each compound.
(§4) The average IC50 values of compounds 1-15 in multiple myeloma (MOLP-8) and triple negative breast cancer (DU4475) cells are shown in Table 1.

DU4475 = experiment: In vitro cell viability assay (CellTiter-Glo, ATP levels), triple negative breast cancer cells; format: cell-based; conditions: Homo sapiens, DU-4475, 168 h
Experimental: as §1, §2, §3, §4

[1] = test system: HCT116 (colorectal cancer) cells; experiment: Resazurin-based cell viability assay using colorectal cancer cells; conditions: Homo sapiens, HCT-116, 72 hr incubation
Experimental: Determination of Potency of Compounds in Cell Viability Assay Using Colorectal Cancer Cells
The blue dye resazurin-based assay was performed to determine cell viability and used according to manufacture protocol (Sigma®). HCT116 (colorectal cancer) cells were seeded in the DMEM medium (10% FBS serum). Approximately 1,500 cells were plated per well in 96 well plates. Cells were allowed to grow at 37° C. for 24 hr in 5% CO2 environment in a humidified incubator. Serially diluted compounds (100 μL) were added to the culture plate after 24 hr. After addition of compounds, plates were incubated for 72 hr. Experiment was terminated at the designated incubation time by replacing the medium with 100 μL of 1 mM of resazurin (Sigma®) prepared in culture medium (DMEM) and were further incubated in culture conditions for 4-6 hours. Fluorescence was recorded using a multimodal plate reader (Biotek Synergy Neo®) at an excitation wavelength of 535 nm and emission wavelength of 590 nm to obtain relative fluorescence units. Data analysis was done by subtracting the background fluorescence (medium blank) value from each reading and then normalizing with the vehicle control (DMSO treated cells) to obtain percent survival/proliferation. IC50 was calculated from percent survival values using GraphPad Prism® (see Table 1).

[2] = 7-day incubation, CellTiter-Glo, average values, read-out: MOLP-8 IC50
[3] = 7-day incubation, CellTiter-Glo, average values, read-out: DU4475 IC50

IC50 (MOLP-8; [2])	IC50 (DU4475; [3])	IC50 [1]	SMILES	IC50 (MOLP-8; read-out: average IC50 in multiple myeloma (MOLP-8) cells)	IC50 (DU4475; read-out: average IC50 in triple negative breast cancer (DU4475) cells)
1.05 µM	0.95 µM	2.6 µM	O=C1C=CCCN1C(=O)/C=C/C1CCCCC1 [Compound 2, (E)-1-(3-cyclohexylacryloyl)-5,6-dihydropyridin-2(1H)-one]		
0.36 µM	0.76 µM	1.7 µM	O=C1C=CCCCN1C(=O)/C=C/c1cnc2ccccc2c1 [Compound 3, (E)-1-(3-(quinolin-3-yl)acryloyl)-1,5,6,7-tetrahydro-2H-azepin-2-one]		
0.52 µM	0.59 µM	1.9 µM	O=C1C=CCCCN1C(=O)/C=C/c1cccnc1 [Compound 4, (E)-1-(3-(pyridin-3-yl)acryloyl)-1,5,6,7-tetrahydro-2H-azepin-2-one]		
0.49 µM	0.57 µM	2 µM	O=C1C=CCCCN1C(=O)/C=C/c1ccncc1 [Compound 5, (E)-1-(3-(pyridin-4-yl)acryloyl)-1,5,6,7-tetrahydro-2H-azepin-2-one]		
0.44 µM	0.56 µM	2.4 µM	O=C1C=CCCCN1C(=O)/C=C/c1cnccn1 [Compound 6, (E)-1-(3-(pyrazin-2-yl)acryloyl)-1,5,6,7-tetrahydro-2H-azepin-2-one]		
0.57 µM	0.49 µM	1.5 µM	O=C1C=CCCN1C(=O)/C=C/c1ncccn1 [Compound 7, (E)-1-(3-(pyrimidin-2-yl)acryloyl)-5,6-dihydropyridin-2(1H)-one]		
0.41 µM	0.5 µM	1.5 µM	O=C1C=CCCCN1C(=O)/C=C/c1ccccn1 [Compound 8, (E)-1-(3-(pyridin-2-yl)acryloyl)-1,5,6,7-tetrahydro-2H-azepin-2-one]		
0.97 µM	0.92 µM	5.7 µM	CC(=O)N1CCC(/C=C/C(=O)N2CCC=CC2=O)CC1 [Compound 9, (E)-1-(3-(1-acetylpiperidin-4-yl)acryloyl)-5,6-dihydropyridin-2(1H)-one]		
2.12 µM	0.95 µM	1.9 µM	O=C1C=CCCN1C(=O)C=C1c2ccccc2-c2ccccc21 [Compound 10, 1-(2-(9H-fluoren-9-ylidene)acetyl)-5,6-dihydropyridin-2(1H)-one]		
0.5 µM	0.58 µM	1.9 µM	O=C1C=CCCN1S(=O)(=O)/C=C/c1cccnc1 [Compound 11, (E)-1-((2-(pyridin-3-yl)vinyl)sulfonyl)-5,6-dihydropyridin-2(1H)-one]		
0.89 µM	0.6 µM	0.96 µM	O=C1C=CCCCN1C(=O)/C=C/c1cncc2ccccc12 [Compound 12, (E)-1-(3-(isoquinolin-4-yl)acryloyl)-1,5,6,7-tetrahydro-2H-azepin-2-one]		
0.51 µM	0.67 µM	1.3 µM	O=C1C=CCCCN1C(=O)/C=C/c1ncccn1 [Compound 13, (E)-1-(3-(pyrimidin-2-yl)acryloyl)-1,5,6,7-tetrahydro-2H-azepin-2-one]		
3.51 µM	3.04 µM	7 µM	O=C1C=CCCCN1S(=O)(=O)/C=C/c1ccccc1 [Compound 14, (E)-1-(styrylsulfonyl)-1,5,6,7-tetrahydro-2H-azepin-2-one]		
0.5 µM	0.5 µM	0.88 µM	O=C1C=CCCCN1C(=O)/C=C/c1ccc2ccccc2n1 [Compound 15, (E)-1-(3-(quinolin-2-yl)acryloyl)-1,5,6,7-tetrahydro-2H-azepin-2-one]		
		2.97 µM	O=C1C=C(Cl)CCN1C(=O)/C=C/c1ncccn1 [Compound 36, (E)-4-chloro-1-(3-(pyrimidin-2-yl)acryloyl)-5,6-dihydropyridin-2(1H)-one]		
0.3 µM	0.65 µM		O=C1C=CCCN1C(=O)/C=C/c1ccnnc1 [Compound 39, (E)-1-(3-(pyridazin-4-yl)acryloyl)-5,6-dihydropyridin-2(1H)-one]		
		1.24 µM	CN1CCC(/C=C/C(=O)N2CCC=CC2=O)CC1 [Compound 41, (E)-1-(3-(1-methylpiperidin-4-yl)acryloyl)-5,6-dihydropyridin-2(1H)-one]		

IC50 (MOLP-8; [2])	IC50 (DU4475; [3])	IC50 [1]	SMILES	IC50 (MOLP-8; read-out: average IC50 in multiple myeloma (MOLP-8) cells)	IC50 (DU4475; read-out: average IC50 in triple negative breast cancer (DU4475) cells)
		2.2 µM	C/C(=C\c1ncccn1)C(=O)N1CCC=CC1=O [Compound 42, (E)-1-(2-methyl-3-(pyrimidin-2-yl)acryloyl)-5,6-dihydropyridin-2(1H)-one]		
		0.97 µM	C/C(=C\c1ncccn1)C(=O)N1CCC=C(Cl)C1=O [Compound 46, (E)-3-chloro-1-(2-methyl-3-(pyrimidin-2-yl)acryloyl)-5,6-dihydropyridin-2(1H)-one]		
		3.14 µM	CS(=O)(=O)N1CCC(/C=C/C(=O)N2CCC=CC2=O)CC1 [Compound 47, 1-{(2E)-3-[1-(methylsulfonyl)piperidin-4-yl]prop-2-enoyl}-5,6-dihydropyridin-2(1H)-one]		
0.29 µM	0.35 µM		O=C1C=CCCN1C(=O)/C=C/c1ncc2ccccc2n1 [Compound 48, (E)-1-(3-(quinazolin-2-yl)acryloyl)-5,6-dihydropyridin-2(1H)-one]		
0.41 µM	0.5 µM		O=C(c1ccc(F)cc1)N1CCC(/C=C/C(=O)N2CCC=CC2=O)CC1 [Compound 50, (E)-1-(3-(1-(4-fluorobenzoyl)piperidin-4-yl)acryloyl)-5,6-dihydropyridin-2(1H)-one]		
0.56 µM	0.57 µM		O=C1C=CCCN1C(=O)/C=C/C1CCN(S(=O)(=O)c2ccc(F)cc2)CC1 [Compound 51, (E)-1-(3-(1-(4-fluorophenylsulfonyl)piperidin-4-yl)acryloyl)-5,6-dihydropyridin-2(1H)-one]		
1 µM	1.52 µM		Cn1cc(/C=C/C(=O)N2CCC=CC2=O)c2ccccc21 [Compound 52, 1-[(2E)-3-(1-methyl-1H-indol-3-yl)prop-2-enoyl]-5,6-dihydropyridin-2(1H)-one]		
		1.4 µM	O=C(c1ccccc1)N1CCC(/C=C/C(=O)N2CCC=CC2=O)CC1 [Compound 54, 1-[(2E)-3-(1-benzoylpiperidin-4-yl)prop-2-enoyl]-5,6-dihydropyridin-2(1H)-one]		
0.39 µM	0.84 µM		CC(C)(O)CN1CCC(/C=C/C(=O)N2CCC=CC2=O)CC1 [Compound 59, 1-{(2E)-3-[1-(2-hydroxy-2-methylpropyl)piperidin-4-yl]prop-2-enoyl}-5,6-dihydropyridin-2(1H)-one]		
0.34 µM	0.59 µM		O=C1C=CCCN1C(=O)/C=C/C1CCN(Cc2ccc(F)cc2)CC1 [Compound 60, 1-{3-[1-(4-fluorobenzyl)piperidin-4-yl]prop-2-enoyl}-5,6-dihydropyridin-2(1H)-one]		
0.68 µM	0.95 µM		O=C1C=CCCN1C(=O)/C=C/C1CCN(c2ccc(F)cc2)CC1 [Compound 61, 1-{3-[1-(4-fluorophenyl)piperidin-4-yl]prop-2-enoyl}-5,6-dihydropyridin-2(1H)-one]		
		4.32 µM	CC1(/C=C/C(=O)N2CCC=CC2=O)CCN(C(=O)OC(C)(C)C)CC1 [Compound 64, tert-butyl (E)-4-methyl-4-(3-oxo-3-(6-oxo-3,6-dihydropyridin-1(2H)-yl)prop-1-en-1-yl)piperidine-1-carboxylate]		
		2.25 µM	O=C1C=CCCN1C(=O)/C=C/c1cnc2c(n1)OCCO2 [Compound 65, (E)-1-(3-(2,3-dihydro-[1,4]dioxino[2,3-b]pyrazin-6-yl)acryloyl)-5,6-dihydropyridin-2(1H)-one]		
		88.3 µM	CC1=CCCN(C(=O)/C=C/c2cnn(C)c2)C1=O [Compound 93, (E)-3-methyl-1-(3-(1-methyl-1H-pyrazol-4-yl)acryloyl)-5,6-dihydropyridin-2(1H)-one]		
		3.15 µM	COc1cc(/C=C/C(=O)N2C(=O)C=CCC2(C)C)cc(OC)c1OC [Compound 94, (E)-6,6-dimethyl-1-(3-(3,4,5-trimethoxyphenyl)acryloyl)-5,6-dihydropyridin-2(1H)-one]		
			COc1cc(/C=C/C(=O)N2CCC=CC2=O)cc(OC)c1OC [Piperlongumine, 1-[(E)-3-(3,4,5-trimethoxyphenyl)prop-2-enoyl]-2,3-dihydropyridin-6-one]	~1.01 µM	~1.24 µM
